15 compounds from patent US20200172473A1, “DUAL MODULATORS OF FARNESOID X RECEPTOR AND SOLUBLE EPOXIDE HYDROLASE” (JOHANN WOLFGANG GOETHE-UNIVERSITÄT FRANKFURT AM MAIN, priority 2017, published 2020) can be followed below.

In one data set the target is T1, recombinant human sEH (Homo sapiens, UniProt P34913).
T1 sequence (P34913 1-555): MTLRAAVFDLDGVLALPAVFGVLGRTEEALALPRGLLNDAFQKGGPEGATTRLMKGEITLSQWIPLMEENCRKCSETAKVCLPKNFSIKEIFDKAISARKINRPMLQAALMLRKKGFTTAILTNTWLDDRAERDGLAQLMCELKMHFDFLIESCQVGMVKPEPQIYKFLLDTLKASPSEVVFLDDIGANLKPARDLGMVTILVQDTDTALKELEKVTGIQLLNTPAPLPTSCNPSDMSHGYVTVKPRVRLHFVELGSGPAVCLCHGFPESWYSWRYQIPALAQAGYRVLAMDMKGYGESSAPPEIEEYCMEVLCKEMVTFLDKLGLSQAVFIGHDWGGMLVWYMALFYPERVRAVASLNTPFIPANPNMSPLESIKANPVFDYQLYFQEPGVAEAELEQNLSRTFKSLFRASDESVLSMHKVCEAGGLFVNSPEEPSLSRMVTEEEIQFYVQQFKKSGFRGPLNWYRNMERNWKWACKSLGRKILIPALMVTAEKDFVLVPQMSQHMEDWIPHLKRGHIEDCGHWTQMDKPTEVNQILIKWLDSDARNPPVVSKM
Kind of data set: fluorescence-based sEH activity assay with PHOME substrate. The settings on record: for IC50: recombinant human sEH, PHOME, read-out: sEH inhibition IC50; for inhibition at 50 µM: read-out: sEH % inhibition at indicated conc. It counts as biochemical. From the text:
(§1) This assay is based on a reporter construct containing a firefly luciferase under the control of the FXR response element from bile salt export protein (BSEP). FXR and its hetero dimer partner retinoid X receptor (RXR) as expression constructs under the control of a CMV promoter as well as a constitutively expressed renilla luciferase (SV40 promoter) for normalization and toxicity control were co-transfected. […] The sEH inhibitory potency of the test compounds was quantified in a fluorescence-based assay using recombinant enzyme and the fluorogenic sEH substrate PHOME^37 that is hydrolyzed to a fluorescent 6-methoxynaphtaldehyde by sEH.
The sEH inhibitory potency of the compounds were determined in a fluorescence-based 96-well sEH activity assay using recombinant human enzyme^50,51. Non-fluorescent PHOME (3-phenylcyano-(6-methoxy-2-naphthalenyl)methyl ester 2-oxiraneacetic acid; Cayman Chemicals) which can be hydrolyzed by the sEH to fluorescent 6-methoxynaphthaldehyde served as substrate. Recombinant human sEH (in Bis-Tris buffer, pH 7, with 0.1 mg/mL BSA containing a final concentration of 0.01% Triton-X 100) was pre-incubated with test compounds (in DMSO, final DMSO concentration: 1%) for 30 min at room temperature. […] A blank control (no protein and no compound) as well as a positive control (no compound) were executed. All experiments were conducted in triplicate and repeated in at least three independent experiments. For IC50 calculation, dose-response curves of increasing compound concentrations were recorded.

For the next data set, the target named is T2, human FXR (Homo sapiens, UniProt Q96RI1).
T2 construct: characterized in a full-length (fl) FXR reporter gene assay in HeLa cells; expressed in transfected cells; host or cells: HeLa
T2 sequence (Q96RI1 1-486): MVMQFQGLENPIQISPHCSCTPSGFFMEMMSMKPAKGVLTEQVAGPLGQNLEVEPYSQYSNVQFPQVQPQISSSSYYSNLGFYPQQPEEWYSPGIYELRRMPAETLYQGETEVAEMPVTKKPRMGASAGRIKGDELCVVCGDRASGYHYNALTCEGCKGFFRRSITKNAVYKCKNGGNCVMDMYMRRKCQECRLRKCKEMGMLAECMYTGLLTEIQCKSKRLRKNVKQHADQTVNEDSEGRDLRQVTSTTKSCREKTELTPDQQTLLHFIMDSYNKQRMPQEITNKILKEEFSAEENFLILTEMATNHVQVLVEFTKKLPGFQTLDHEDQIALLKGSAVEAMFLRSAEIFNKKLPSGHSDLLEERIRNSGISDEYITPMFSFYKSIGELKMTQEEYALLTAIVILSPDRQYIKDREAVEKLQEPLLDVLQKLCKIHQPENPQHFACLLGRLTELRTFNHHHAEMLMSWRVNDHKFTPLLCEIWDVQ
T2 sequence (P19793 1-462 partner): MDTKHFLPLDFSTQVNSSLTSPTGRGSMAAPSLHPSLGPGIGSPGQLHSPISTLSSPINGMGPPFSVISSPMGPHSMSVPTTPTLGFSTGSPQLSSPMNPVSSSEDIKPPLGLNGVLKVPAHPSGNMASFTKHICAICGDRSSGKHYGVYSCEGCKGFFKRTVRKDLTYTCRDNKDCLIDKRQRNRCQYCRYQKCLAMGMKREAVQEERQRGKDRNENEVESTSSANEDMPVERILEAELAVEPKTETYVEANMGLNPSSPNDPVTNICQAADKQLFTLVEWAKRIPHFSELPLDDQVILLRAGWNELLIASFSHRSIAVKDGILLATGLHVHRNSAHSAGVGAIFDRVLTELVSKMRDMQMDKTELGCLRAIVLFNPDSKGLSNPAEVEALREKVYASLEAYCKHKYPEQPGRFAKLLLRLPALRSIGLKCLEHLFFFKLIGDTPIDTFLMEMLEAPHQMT
Kind of data set: full-length FXR reporter gene (transactivation) assay in HeLa cells. The settings on record: for Emax: HeLa, read-out: FXR activation max. rel. activation (converted); for EC50: full-length FXR reporter gene assay, HeLa cells, read-out: FXR activation EC50. It counts as cell-based.
Text: as §1
Plasmids: pcDNA3-hFXR contains the sequence of human FXR and was already published elsewhere.^47 pGL3 basic (Promega Corporation, Fitchburg, Wis., USA) was used as a reporter plasmid, with a shortened construct of the promotor of the bile salt export protein (BSEP) cloned into the SacI/NheI cleavage site in front of the luciferase gene.^48 pRL-V40 (Promega) was transfected as a control for normalization of transfection efficiency and cell growth. pSG5-hRXR was already published elsewhere as well.^49
Assay procedure: HeLa cells were grown in DMEM high glucose supplemented with 10% FCS, sodium pyruvate (1 mM), penicillin (100 U/mL) and streptomycin (100 μg/mL) at 37° C. and 5% CO2. […] Transient transfection of HeLa cells with BSEP-pGL3, pRL-SV40 and the expression plasmids pcDNA3-hFXR and pSG5-hRXR was carried out using calcium phosphate transfection method. […] Each concentration was tested in triplicate wells and each experiment was repeated independently at least three times. […] Luminescence was measured with a Tecan Infinite M200 luminometer (Tecan Deutschland GmbH, Crailsheim, Germany). Normalization of transfection efficiency and cell growth was done by division of firefly luciferase data by renilla luciferase data multiplied by 1000 resulting in relative light units (RLU). Fold activation was obtained by dividing the mean RLU of the tested compound at a respective concentration by the mean RLU of untreated control. […] EC50 and standard error of the mean values were calculated with the mean relative activation values of at least three independent experiments by SigmaPlot 10.0 (Systat Software GmbH, Erkrath, Germany) using a four parameter logistic regression.
(In general: In a reporter assay the amount or activity of a reporter protein is the signal.)

Data set [1] relates to PPARγ target genes CD36 and FAM3A. Kind of data set: PPARγ target gene mRNA quantification (qRT-PCR) in HepG2 cells. Format: cell-based. The settings on record: HepG2, 1 μM. (In general: Real-time PCR tracks product formation cycle by cycle.)
The target in data set [2] is T3, cellular sEH (HepG2 cell homogenates) (Homo sapiens, UniProt P34913).
T3 sequence (P34913 1-555): T1 sequence (P34913 1-555)
The settings on record: 10 μM (positive control); DMSO 63±16, blank 499±123.
Experimental: 25 ng (+)14(15)-EET-d11 (Cayman Chemical, Ann Arbor, USA) was added and incubation was continued for additional to min at 37° C. A blank test was performed with PBS (containing 0.1 mg/ml BSA) treated likewise. The reactions were stopped by adding 100 μl of ice cold methanol. After centrifugation (2000 rpm, 4° C., 5 min), supernatants were analyzed by LC-MS/MS and the amounts of (±)14(15)-EET-d11 and the corresponding (±)14(15)-DHET-d11 were determined.

A short description of a further data set: aqueous solubility. It counts as physicochemical. Conditions: LLOQ 0.1 μg/mL.

Usually IC50 stands for the concentration at which inhibition is half-maximal. For orientation: EC50 means the midpoint of the concentration-response curve. For the compound `CSc1ccc(CNC(=O)c2ccc(C(C)(C)C)cc2)cc1` [compound 51], the IC50 at recombinant human sEH was about 100 nM. Further, on human FXR, the Emax was 33% and the EC50 is about 100 nM.

The inhibition is the percentage by which the read-out fell short of the control. Take `Cc1cc(CNC(=O)c2ccc(C(C)(C)C)cc2)ccc1C(=O)O` [compound 26]: on recombinant human sEH, the inhibition at 50 µM was found to be 53 ± 1%. Moreover, at human FXR, the Emax was 14%.

Turning to `CC(C)S(=O)(=O)Nc1ccc(CNC(=O)c2ccc(C(C)(C)C)cc2)c(Cl)c1` [compound 81, 4-(tert-Buty)-N-(2-chloro-4-(isopropylsulfonamide)benzyl)-benzamide], at recombinant human sEH, the IC50 turned out to be 11 ± 0.3 nM. Also, on human FXR, the Emax is 11% and the EC50 came to 420 ± 20 nM.

Regarding `CCc1ccc(CCOc2ccc(CC3SC(=O)NC3=O)cc2)nc1` (centres unmarked) [pioglitazone, reference compound], in data set [1], the “CD36 mRNA expression compared to vehicle set as 100%” value was determined as 353±43% and the “FAM3A mRNA expression compared to vehicle set as 100%” value was 310±66%.

Turning to `O=C(O)c1ccc(CNC(=O)c2ccc3ccccc3c2)cc1` [compound 17], the inhibition at 50 µM on recombinant human sEH was found to be 45 ± 1%. Moreover, at human FXR, the Emax is 18%.

Consider `CC(C)(C)c1ccc(C(=O)NCc2ccc(NS(C)(=O)=O)cc2Cl)c(O)c1` [compound 77, 4-(tert-Butyl-2-hydroxy)-N-(2-chloro-4-(methylsulfonamido)benzyl)benzamide], for which the IC50 at recombinant human sEH worked out at 380 ± 50 nM. In addition, at human FXR, the “FXR activation (result in words)” value was “antagonistic”.

As to `CS(=O)(=O)Nc1ccc(CNC(=O)c2ccc(C3(C(F)(F)F)CC3)cc2)c(Cl)c1` [compound 84, 4-((1-Trifluoromethyl)cycloprop-1-yl)-N-(2-chloro-4-(methylsulfonamido)benzyl)benzamide], the IC50 at recombinant human sEH came out at 4 ± 0.4 nM. In addition, on human FXR, the Emax is 31% and the EC50 was 540 ± 20 nM.

As to `COc1ccc(C(=O)NCc2ccc(C(=O)O)cc2)cc1OC` [compound 15], the inhibition at 50 µM at recombinant human sEH was 26 ± 2%. Further, the Emax at human FXR was 18%.

For the compound `O=C(Nc1ccc(I)cc1)NC1CCCCC1` [CIU, reference compound], the “(±)14(15)-EET-d11/(±)14(15)-DHET-d11 ratio” value in data set [2] came to 519±55. On human FXR (10 μM), the “activity in FXR reporter gene assay” value is “no activity”.

Consider `CC(C)(C)c1ccc(C(=O)NCc2ccc(NS(C)(=O)=O)cc2C(F)(F)F)cc1` [compound 80, 4-(tert-Butyl)-N-(2-trifluoromethyl-4-(methylsulfonamido)benzyl)benzamide], for which the IC50 at recombinant human sEH turned out to be 2 ± 0.08 nM. For the same compound, on human FXR, the Emax was 19% and the EC50 came to 1200 ± 180 nM.

`CC(C)(C)c1ccc(C(=O)NCc2cccc(C(=O)O)c2)cc1` [compound 22]: the inhibition at 50 µM at recombinant human sEH amounted to 26 ± 2%. For the same compound, the Emax on human FXR was 14%.

In general, aqueous solubility refers to how much of the substance goes into solution per volume. A higher aqueous solubility goes with a readily soluble substance. `CC(C)(C)c1ccc(C(=O)NCc2ccc(NC(=O)C(F)(F)F)cc2Cl)cc1` [compound 56] yielded an aqueous solubility in “aqueous solubility” of under 0.1 µg/mL. Also, at human FXR, the Emax is 21%.

In the case of `CCS(=O)(=O)Nc1ccc(CNC(=O)c2ccc(C(C)(C)C)cc2)c(Cl)c1` [compound 82, 4-(tert-Butyl)-N-(2-chloro-4-(ethylsulfonamido)benzyl)-benzamide], the IC50 on recombinant human sEH is 6 ± 0.5 nM. Further, on human FXR, the Emax was 23% and the EC50 was found to be 490 ± 50 nM.

As to `CC(NC(=O)c1ccc(C(C)(C)C)cc1)c1ccc(C(=O)O)cc1` (centres unmarked) [compound 32], the inhibition at 50 µM at recombinant human sEH is 37 ± 1%. The Emax at human FXR is 24%.

As for `CC(C)(C)c1ccc(C(=O)NCc2ccc(C(=O)O)c(Cl)c2)cc1` [compound 28], at recombinant human sEH, the inhibition at 50 µM is 50 ± 1%. Also, the Emax on human FXR is 21%.
